Data from patent US20200024278A1, “COMPOSITION COMPRISING ANTIBIOTIC COMPOUND AND AN HETEROCYCLIC COMPOUND AND THEIR USE IN PREVENTING OR TREATING BACTERIAL INFECTIONS” (MUTABILIS, priority 2016, published 2020).
Blank lines part the entries; values can stand above or below the compound they belong to.

What was measured:
Assay in all cases: MIC, broth microdilution (CLSI), substance alone or ATB combined with compound at 4 or 8 μg/mL
[1] = test system: ECO 190317; type: cell-based, E. coli; settings: ECO 190317; for MIC ATB combined with Example 13 @8 μg/ml: with Example 13 at 8 μg/ml
Description: (§1) Compounds of the present invention were assessed against genotyped bacterial strains alone or in combination with an antibacterial. In the assays, MICs of said compounds or combination of antibiotics with fixed concentrations of said compounds (4 or 8 μg/mL) were determined by the broth microdilution method according to the Clinical Laboratory Standards Institute (CLSI-M7-A7). Briefly, compounds alone according to the invention were prepared in DMSO and spotted (2 μL each) on sterile polystyrene plates (Corning, 3788). Combinations of compounds and antibiotics dilutions were prepared in DMSO and spotted (1 μL each) on sterile polystyrene plates (Corning, 3788). Log phase bacterial suspensions were adjusted to a final density of 5·10^5 CFU/mL in cation-adjusted Mueller-Hinton broth (ca-MHB; Becton-Dickinson and Company) and added to each well (98 μL). Assays including Fosfomycin were supplemented with 25 μg/ml of Glucose-6-phosphate. Microplates were incubated for 16-20 h at 35° C. in ambient air. The MIC of the compounds was defined as the lowest concentration of said compounds that prevented bacterial growth as read by visual inspection. The MIC of ATB at each compound concentration was defined as the lowest concentration of ATB that prevented bacterial growth as read by visual inspection.

[2] = test system: ECO UFR39; type: cell-based, E. coli; settings: ECO UFR39; for MIC ATB combined with Example 13 @8 μg/ml: with Example 13 at 8 μg/ml
Description: as §1

[3] = test system: ECL P99; type: cell-based, E. cloacae; settings: ECL P99
Description: as §1

[4] = test system: PAE 105250; type: cell-based, P. aeruginosa; settings: PAE 105250; for MIC ATB combined with Example 12 @8 μg/ml: with Example 12 at 8 μg/ml; for MIC ATB combined with Example 14 @8 μg/ml: with Example 14 at 8 μg/ml; for MIC ATB combined with Example 16 @4 μg/ml: with Example 16 at 4 μg/ml
Description: as §1

[5] = test system: PAE UFR48; type: cell-based, P. aeruginosa; settings: PAE UFR48; for MIC ATB combined with Example 12 @8 μg/ml: with Example 12 at 8 μg/ml; for MIC ATB combined with Example 14 @8 μg/ml: with Example 14 at 8 μg/ml; for MIC ATB combined with Example 16 @4 μg/ml: with Example 16 at 4 μg/ml
Description: as §1

[6] = test system: PAE UFR90; type: cell-based, P. aeruginosa; settings: PAE UFR90; for MIC ATB combined with Example 14 @8 μg/ml: with Example 14 at 8 μg/ml; for MIC ATB combined with Example 16 @4 μg/ml: with Example 16 at 4 μg/ml
Description: as §1

[7] = test system: SAU 29213; type: cell-based, S. aureus; settings: SAU 29213; for MIC ATB alone: antibiotic alone; for MIC ATB combined with Example 7 @8 μgml: with Example 7 at 8 μg/ml; for MIC ATB combined with Example 11 @8 μg/ml: with Example 11 at 8 μg/ml; for MIC ATB combined with Example 13 @8 μg/ml: with Example 13 at 8 μg/ml; for MIC ATB combined with Example 15 @4 μgml: with Example 15 at 4 μg/ml
Description: as §1

[8] = test system: SPN 49619; type: cell-based, S. pneumoniae; settings: SPN 49619; for MIC ATB alone: antibiotic alone; for MIC ATB combined with Example 7 @8 μgml: with Example 7 at 8 μg/ml; for MIC ATB combined with Example 11 @8 μg/ml: with Example 11 at 8 μg/ml; for MIC ATB combined with Example 13 @8 μg/ml: with Example 13 at 8 μg/ml; for MIC ATB combined with Example 15 @4 μgml: with Example 15 at 4 μg/ml; for MIC ATB combined with Example 16 @4 μg/ml: with Example 16 at 4 μg/ml
Description: as §1

SMILES: CO/N=C(\C(=O)N[C@@H]1C(=O)N2C(C(=O)O)=C(COC(C)=O)CS[C@H]12)c1csc(N)n1 [CTX]
MIC ATB combined with Example 1 @8 μg/ml ([1]; with Example 1 @8 μg/ml): <0.031 µg/mL
MIC ATB combined with Example 1 @8 μg/ml ([1]; with Example 1 at 8 μg/ml): <0.031 µg/mL
MIC ATB combined with Example 13 @8 μg/ml [1]: <0.031 µg/mL
MIC ATB combined with Example 13 @8 μg/ml [2]: <0.031 µg/mL
MIC ATB combined with Example 1 @8 μg/ml ([3]; with Example 1 @8 μg/ml): <0.031 µg/mL
MIC ATB combined with Example 1 @8 μg/ml ([3]; with Example 1 at 8 μg/ml): <0.031 µg/mL
MIC ATB combined with Example 7 @8 μgml ([3]; with Example 7 at 8 μg/ml): 0.063 µg/mL
MIC ATB combined with Example 13 @8 μg/ml ([3]; with Example 13 at 8 μg/ml): 1 µg/mL
MIC ATB combined with Example 15 @4 μgml ([3]; with Example 15 at 4 μg/ml): <=0.031 μg/mL
MIC ATB combined with Example 1 @8 μg/ml ([4]; with Example 1 @8 μg/ml): <0.031 µg/mL
MIC ATB combined with Example 1 @8 μg/ml ([4]; with Example 1 at 8 μg/ml): <0.031 µg/mL
MIC ATB combined with Example 7 @8 μgml ([4]; with Example 7 at 8 μg/ml): 32 µg/mL
MIC ATB combined with Example 11 @8 μg/ml ([4]; with Example 11 at 8 μg/ml): 32 µg/mL
MIC ATB combined with Example 12 @8 μg/ml [4]: >32 µg/mL
MIC ATB combined with Example 14 @8 μg/ml [4]: >32 µg/mL
MIC ATB combined with Example 15 @4 μgml ([4]; with Example 15 at 4 μg/ml): 32 µg/mL
MIC ATB combined with Example 16 @4 μg/ml [4]: >32 µg/mL
MIC ATB combined with Example 1 @8 μg/ml ([5]; with Example 1 @8 μg/ml): <0.031 µg/mL
MIC ATB combined with Example 1 @8 μg/ml ([5]; with Example 1 at 8 μg/ml): <0.031 µg/mL
MIC ATB combined with Example 7 @8 μgml ([5]; with Example 7 at 8 μg/ml): >32 µg/mL
MIC ATB combined with Example 11 @8 μg/ml ([5]; with Example 11 at 8 μg/ml): >32 µg/mL
MIC ATB combined with Example 12 @8 μg/ml [5]: >32 µg/mL
MIC ATB combined with Example 14 @8 μg/ml [5]: >32 µg/mL
MIC ATB combined with Example 15 @4 μgml ([5]; with Example 15 at 4 μg/ml): >32 µg/mL
MIC ATB combined with Example 16 @4 μg/ml [5]: >32 µg/mL
MIC ATB combined with Example 1 @8 μg/ml ([6]; with Example 1 @8 μg/ml): <0.031 µg/mL
MIC ATB combined with Example 1 @8 μg/ml ([6]; with Example 1 at 8 μg/ml): <0.031 µg/mL
MIC ATB combined with Example 7 @8 μgml ([6]; with Example 7 at 8 μg/ml): >32 µg/mL
MIC ATB combined with Example 11 @8 μg/ml ([6]; with Example 11 at 8 μg/ml): >32 µg/mL
MIC ATB combined with Example 14 @8 μg/ml [6]: >32 µg/mL
MIC ATB combined with Example 15 @4 μgml ([6]; with Example 15 at 4 μg/ml): >32 µg/mL
MIC ATB combined with Example 16 @4 μg/ml [6]: >32 µg/mL
MIC ATB alone [7]: 2 µg/mL
MIC ATB combined with Example 1 @8 μg/ml ([7]; with Example 1 @8 μg/ml): 2 µg/mL
MIC ATB combined with Example 1 @8 μg/ml ([7]; with Example 1 at 8 μg/ml): 2 µg/mL
MIC ATB combined with Example 7 @8 μgml [7]: 1 µg/mL
MIC ATB combined with Example 11 @8 μg/ml [7]: <=0.031 μg/mL
MIC ATB combined with Example 13 @8 μg/ml [7]: 1 µg/mL
MIC ATB combined with Example 15 @4 μgml [7]: 0.5 µg/mL
MIC ATB alone [8]: 0.063 µg/mL
MIC ATB combined with Example 1 @8 μg/ml ([8]; with Example 1 @8 μg/ml): <=0.031 μg/mL
MIC ATB combined with Example 1 @8 μg/ml ([8]; with Example 1 at 8 μg/ml): <=0.031 μg/mL
MIC ATB combined with Example 7 @8 μgml [8]: <=0.031 μg/mL
MIC ATB combined with Example 9 @4 μg/ml ([8]; with Example 9 @4 μg/ml): <=0.031 μg/mL
MIC ATB combined with Example 9 @4 μg/ml ([8]; with Example 9 at 4 μg/ml): <=0.031 μg/mL
MIC ATB combined with Example 11 @8 μg/ml [8]: <=0.031 μg/mL
MIC ATB combined with Example 12 @8 μg/ml ([8]; with Example 12 at 8 μg/ml): <=0.031 μg/mL
MIC ATB combined with Example 13 @8 μg/ml [8]: <=0.031 μg/mL
MIC ATB combined with Example 14 @8 μg/ml ([8]; with Example 14 at 8 μg/ml): <=0.031 μg/mL
MIC ATB combined with Example 15 @4 μgml [8]: <=0.031 μg/mL
MIC ATB combined with Example 16 @4 μg/ml [8]: <=0.031 μg/mL

MIC ATB alone ([1]; antibiotic alone): 8 µg/mL
MIC ATB combined with Example 1 @8 μg/ml ([1]; with Example 1 @8 μg/ml): <0.031 µg/mL
MIC ATB combined with Example 1 @8 μg/ml ([1]; with Example 1 at 8 μg/ml): <0.031 µg/mL
MIC ATB combined with Example 7 @8 μgml ([1]; with Example 7 at 8 μg/ml): <0.031 µg/mL
MIC ATB combined with Example 13 @8 μg/ml [1]: <0.031 µg/mL
MIC ATB alone ([2]; antibiotic alone): 64 µg/mL
MIC ATB combined with Example 1 @8 μg/ml ([2]; with Example 1 @8 μg/ml): <0.031 µg/mL
MIC ATB combined with Example 1 @8 μg/ml ([2]; with Example 1 at 8 μg/ml): <0.031 µg/mL
MIC ATB combined with Example 7 @8 μgml ([2]; with Example 7 at 8 μg/ml): <0.031 µg/mL
MIC ATB combined with Example 13 @8 μg/ml [2]: <=0.031 μg/mL
MIC ATB alone ([3]; antibiotic alone): 512 µg/mL
MIC ATB combined with Example 1 @8 μg/ml ([3]; with Example 1 @8 μg/ml): <0.031 µg/mL
MIC ATB combined with Example 1 @8 μg/ml ([3]; with Example 1 at 8 μg/ml): <0.031 µg/mL
MIC ATB combined with Example 12 @8 μg/ml [4]: >32 µg/mL
MIC ATB combined with Example 14 @8 μg/ml [4]: >32 µg/mL
MIC ATB combined with Example 16 @4 μg/ml [4]: >32 µg/mL
MIC ATB alone ([5]; antibiotic alone): 512 µg/mL
MIC ATB combined with Example 1 @8 μg/ml ([5]; with Example 1 @8 μg/ml): <0.031 µg/mL
MIC ATB combined with Example 1 @8 μg/ml ([5]; with Example 1 at 8 μg/ml): <0.031 µg/mL
MIC ATB combined with Example 12 @8 μg/ml [5]: >32 µg/mL
MIC ATB combined with Example 14 @8 μg/ml [5]: >32 µg/mL
MIC ATB combined with Example 16 @4 μg/ml [5]: >32 µg/mL
MIC ATB alone ([6]; antibiotic alone): >1024 µg/mL
MIC ATB combined with Example 1 @8 μg/ml ([6]; with Example 1 @8 μg/ml): <0.031 µg/mL
MIC ATB combined with Example 1 @8 μg/ml ([6]; with Example 1 at 8 μg/ml): <0.031 µg/mL
MIC ATB combined with Example 12 @8 μg/ml ([6]; with Example 12 at 8 μg/ml): >32 µg/mL
MIC ATB combined with Example 14 @8 μg/ml [6]: >32 µg/mL
MIC ATB combined with Example 16 @4 μg/ml [6]: >32 µg/mL
MIC ATB alone [7]: 16 µg/mL
MIC ATB combined with Example 1 @8 μg/ml ([7]; with Example 1 @8 μg/ml): 16 µg/mL
MIC ATB combined with Example 1 @8 μg/ml ([7]; with Example 1 at 8 μg/ml): 16 µg/mL
MIC ATB combined with Example 7 @8 μgml [7]: 4 µg/mL
MIC ATB combined with Example 11 @8 μg/ml [7]: <=0.031 μg/mL
MIC ATB combined with Example 13 @8 μg/ml [7]: 4 µg/mL
MIC ATB combined with Example 15 @4 μgml [7]: 0.063 µg/mL
MIC ATB alone [8]: 4 µg/mL
MIC ATB combined with Example 1 @8 μg/ml ([8]; with Example 1 @8 μg/ml): 4 µg/mL
MIC ATB combined with Example 1 @8 μg/ml ([8]; with Example 1 at 8 μg/ml): 4 µg/mL
MIC ATB combined with Example 7 @8 μgml [8]: 2 µg/mL
MIC ATB combined with Example 11 @8 μg/ml [8]: 2 µg/mL
MIC ATB combined with Example 13 @8 μg/ml [8]: 2 µg/mL
MIC ATB combined with Example 15 @4 μgml [8]: 2 µg/mL
MIC ATB combined with Example 16 @4 μg/ml [8]: <=0.031 μg/mL
SMILES: O=C(N[C@H](CO)[C@H](O)c1ccc([N+](=O)[O-])cc1)C(Cl)Cl [CM]
